Converted amounts (≈) assume the structure as drawn.

This is an account of results in article PMC4096046 (Bioorganic & medicinal chemistry letters, 2014).

The test system of test [1] is H37Rv Mtb. As to the kind of experiment: MIC against replicating H37Rv Mtb in GAS and 7H12 media. The note with it: for MIC: Mycobacterium tuberculosis, H37RV, read-out: MIC mean +/- against replicating Mtb in medium: GAS (μg/mL), GAS medium, H37Rv, recalculated from μM. It counts as cell-based, Mycobacterium tuberculosis.
Test [2] deals with Mycobacterium bovis BCG. In words: MIC against non-tubercular mycobacteria: M. bovis BCG. It counts as cell-based. The note with it: Mycobacterium tuberculosis variant bovis BCG.
The test system of test [3] is Mycobacterium avium. In words: MIC against non-tubercular mycobacteria: M. avium. In kind it is cell-based.
For test [4], the system named is Mycobacterium kansasii. In words: MIC against non-tubercular mycobacteria: M. kansasii. It counts as cell-based.

As for `Cc1ccn2c(C(=O)NCc3ccccc3)c(C)nc2c1` [Compound 1, N-benzyl-2,7-dimethyl-imidazo[1,2-a]pyridine-3-carboxamide], the “times more potent than 12” value in test [1] (MIC's of 0.2 and 70 μM) is on record as 350 times.
As to `Cc1ccc2nc(C)c(C(=O)NCc3ccccc3)n2c1` [Compound 2], the MIC in test [2] is 1 µM (≈ 0.279 µg/mL); in test [3], 16 µM (≈ 4.47 µg/mL); in test [1] it was 0.031 ± 0.002 µg/mL (≈ 0.111 µM).
Regarding `Cc1cnc2nc(C)c(C(=O)NCc3ccccc3)n2c1` [Compound 6, N-benzyl-2,6-dimethylimidazo[1,2-a]pyrimidine-3-carboxamide], the MIC in test [4] was 19 µM (≈ 5.33 µg/mL); in test [2] it was 8 µM (≈ 2.24 µg/mL); in test [1], 0.36 ± 0.06 µg/mL (≈ 1.28 µM).
For the compound `Cc1ccc2nc(C)c(C(=O)NCc3ccccc3)n2n1` [Compound 7, N-benzyl-2,6-dimethylimidazo[1,2-b]pyridazine-3-carboxamide], the MIC in test [1] was 17.9 ± 0.5 µg/mL (≈ 63.9 µM).
Same read-out and setting: then `Cc1ccc2c(C(=O)NCc3ccccc3)c(C)[nH]c2c1` [Compound 8, N-Benzyl-2,6-dimethyl-1H-indole-3-carboxamide], with 12.2 ± 0.3 µg/mL (≈ 43.8 µM).
Consider `Cc1ccc2c(C(=O)NCc3ccccc3)n[nH]c2c1` [Compound 9, N-benzyl-6-methyl-1H-indazole-3-carboxamide], for which the MIC in test [1] is 10.8 ± 0.9 µg/mL (≈ 40.7 µM).
Regarding `Cc1ccn2c(C(=O)NCc3ccccc3)nnc2c1` [Compound 10, N-benzyl-7-methyl-[1,2,4]triazolo[4,3-a]pyridine-3-carboxamide], the “negative effect on potency relative to compound 2” value in test [1] (GAS medium, MIC of 0.1 and 101 μM) amounted to 1000 x. Further, the MIC in test [1] is 27 ± 1.6 µg/mL (≈ 101 µM).
In the case of `Cc1cc(C)n2nc(C(=O)NCc3ccccc3)nc2n1` [Compound 11, N-benzyl-5,7-dimethyl-[1,2,4]triazolo[1,5-a]pyrimidine-2-carboxamide], the MIC in test [1] was 35.4 ± 0.8 µg/mL (≈ 126 µM).
Take `Cc1ccn2c(C)c(C(=O)NCc3ccccc3)nc2c1` [Compound 12, N-benzyl-3,7-dimethylimidazo[1,2-a]pyridine-2-carboxamide]: the MIC in test [1] was 19.6 ± 2.5 µg/mL (≈ 70.2 µM).
